For one molecule, IC50 results are on record in ChEMBL document CHEMBL1131516, “Sialyl Lewis X-polysaccharide conjugates: targeting inflammatory lesions” (Bioorg Med Chem Lett, 1998).

The assay deals with T1, E-selectin (Rattus norvegicus, UniProt P98105).
T1 sequence (P98105 whole entry): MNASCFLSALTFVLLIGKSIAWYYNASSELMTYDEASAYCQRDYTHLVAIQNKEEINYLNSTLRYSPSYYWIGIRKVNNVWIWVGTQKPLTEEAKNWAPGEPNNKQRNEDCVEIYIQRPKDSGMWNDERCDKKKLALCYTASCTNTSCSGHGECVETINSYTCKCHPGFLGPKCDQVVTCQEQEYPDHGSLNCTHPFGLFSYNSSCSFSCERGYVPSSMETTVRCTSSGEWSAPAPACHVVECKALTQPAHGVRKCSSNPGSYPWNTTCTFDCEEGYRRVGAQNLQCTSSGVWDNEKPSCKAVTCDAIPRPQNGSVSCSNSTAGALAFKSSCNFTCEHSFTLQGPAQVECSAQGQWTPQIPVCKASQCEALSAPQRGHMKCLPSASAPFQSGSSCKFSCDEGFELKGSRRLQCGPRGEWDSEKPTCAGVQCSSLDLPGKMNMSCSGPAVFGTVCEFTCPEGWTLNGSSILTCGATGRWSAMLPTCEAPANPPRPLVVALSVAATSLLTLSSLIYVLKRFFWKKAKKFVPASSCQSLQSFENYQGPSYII
The experiment in a line: Inhibitory concentration against Selectin E expressed at the inflammatory lesion was measured by inhibition of leukocyte rolling in the inflammatory model using IL-lbeta activated rat mesentery venules. (In vivo ). It counts as organism-based.

For orientation: IC50 means the concentration needed to halve the response being measured. Read a high IC50 as a need for much substance. `CCOCCOCCOCCOCCOCCO[C@@H]1O[C@@H](CO)[C@@H](O[C@@H]2O[C@@H](CO)[C@H](O)[C@H](O[C@]3(C(=O)O)C[C@@H](O)[C@@H](NC(C)=O)[C@H]([C@H](O)[C@H](O)CO)O3)[C@@H]2O)[C@H](O[C@@H]2O[C@@H](C)[C@@H](O)[C@H](O)[C@@H]2O)[C@@H]1NC(C)=O` returned an IC50 of 2630 nM.
